# Biological target: T1, 5-HT1A receptor (Rattus norvegicus, UniProt P19327)
# T1 construct: from tissue; host or cells: cerebral cortex membranes of male Sprague Dawley rats
# T1 sequence (P19327 1-422): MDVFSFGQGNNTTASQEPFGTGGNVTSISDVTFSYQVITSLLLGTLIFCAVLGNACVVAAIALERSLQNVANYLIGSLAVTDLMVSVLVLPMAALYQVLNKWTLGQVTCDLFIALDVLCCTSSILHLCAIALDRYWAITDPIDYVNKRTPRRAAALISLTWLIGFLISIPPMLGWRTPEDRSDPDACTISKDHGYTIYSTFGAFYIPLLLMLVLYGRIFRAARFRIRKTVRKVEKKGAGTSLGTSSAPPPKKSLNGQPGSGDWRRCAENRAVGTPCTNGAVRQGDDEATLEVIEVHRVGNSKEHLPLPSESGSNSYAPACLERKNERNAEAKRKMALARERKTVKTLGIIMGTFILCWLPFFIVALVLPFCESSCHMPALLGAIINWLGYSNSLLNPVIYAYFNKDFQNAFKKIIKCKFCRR
# Assay: Affinity for 5-HT1A receptor: inhibition of [3H]8-OH-DPAT binding to rat cerebral cortex membranes
# Settings: [3H]8-OH-DPAT (1 nM), 30 min at 25° C., Tris-HCl 50 mM, pH=7.4
# Description: The affinity of the compounds for serotonergic 5-HT1A receptors is determined by measuring the inhibition of [3H]8-hydroxy-2-(di-n-propylaminotetralin ([3H]8-OH-DPAT) bound to the cerebral cortex of the rat, according to the method of Peroutka and his coworkers [(J. Neurochem., 47, 529 (1986)].
# Cerebral cortices of male Sprague Dawley rats are homogenised in Tris-HCl 50 mM, pH=7.4 and centrifuged at 40,000 g for 10 min at 4° C. Pellets are resuspended in the same buffer and incubated for 10 min at 37° C., and the homogenised products are centrifuged again at 40,000 g for 10 min at 4° C.
# Competitive inhibition tests of [3H]8-OH-DPAT binding are carried out three times with unlabelled competitors, with concentrations between 100 pM and 100 μM. Cerebral cortex membranes of rats (10 mg wet weight/ml) are incubated with [3H]8-OH-DPAT (1 nM) for 30 min at 25° C. in Tris-HCl 50 mM, pH=7.4 containing 4 mM of CaCl2, […] of paragyline and 0.1% of ascorbic acid.
# The bound [3H]8-OH-DPAT is separated from free [3H]8-OH-DPAT by immediate filtration by means of Whatman GF/B glass fibre filters using a Brandel cell recovery device. The filters are washed three times with the same buffer at 0-4° C. and their radioactivity is studied by means of a liquid scintillation spectrometer.
# The specific binding is obtained by subtracting the binding determined in the presence of […] of 8-OH-DPAT from the total binding. The characteristics of the binding are analysed by iterative analysis of the non-linear regression by computer, using the Ligand program [Munson and Rodbard, Anal. Biochem., 107, 220 (1980)].
row,Ki [nM],Structure (SMILES)
1,0.19,"COc1ccccc1OCCNCCCCC(=O)NC1CCCCC1 [Compound 2, N-cyclohexyl-5-[{2-(2-methoxyphenoxy)ethyl}amino]pentanamide]"
2,0.29,"COc1ccccc1OCCNCCCCC(=O)NC1CCCC1 [Compound 4, N-cyclopentyl-5-[{2-(2-methoxyphenoxy)ethyl}amino]pentanamide]"
3,0.88,"CC(=O)Nc1cccc(OCCNCCCCC(=O)NCC(C)(C)C)c1 [Compound 12, N-neopentyl-5-[{2-(3-(methylcarbonylamino)phenoxy)ethyl}-amino]pentanamide]"
4,0.32,"COc1ccccc1OCCNCCCCC(=O)NCC(C)(C)C [Compound 3, N-neopentyl-5-[{2-(2-methoxyphenoxyl)ethyl}amino]pentanamide]"
5,0.54,"COc1ccccc1OCCNCCCCC(=O)NC(C)(C)C [Compound 1, N-tert-butyl-5-[{2-(2-methoxyphenoxy)ethyl}amino]pentanamide]"
6,0.098,"COc1ccccc1OCCNCCCCC(=O)NC1CCCCCC1 [Compound 5, N-cycloheptyl-5-[{2-(2-methoxyphenoxy)ethyl}amino]pentanamide]"
7,0.41,"CC(C)(C)CNC(=O)CCCCNCCOc1cccc(NC(N)=O)c1 [Compound 9, N-neopentyl-5-[{2-(3-(aminocarbonylamino)phenoxy)ethyl}-amino]pentanamide]"
8,0.13,"NC(=O)Nc1cccc(OCCNCCCCC(=O)NC2CCCCCC2)c1 [Compound 10, N-cyclcoheptyl-5-[{2-(3-(aminocarbonylamino)phenoxy)ethyl}amino]pentanamide]"
9,0.84,"COC(=O)Nc1cccc(OCCNCCCCC(=O)NCC(C)(C)C)c1 [Compound 13, N-neopentyl-5-[{2-(3-(methoxycarbonylamino)phenoxy)ethyl}amino]pentanamide]"
10,0.37,"CC(=O)Nc1cccc(OCCNCCCCC(=O)NC2CCCCC2)c1 [Compound 11, N-cyclohexyl-5-[{2-(3-(methylcarbonylamino)phenoxy)ethyl}amino]pentanamide]"

# Source: patent US5998666A, “Phenoxyethylamine derivatives, method of preparation, application as medicine and pharmaceutical compositions containing same” (Societe de Conseils de Recherches Et d'Applications …, priority 1996, dated 1999)
